Experimental data as given in patent publication US20220304352A1, “TASTE-MODIFYING COMPOUNDS AND USES THEREOF” (Firmenich SA, priority 2019, published 2022).

Columns and labels:
Format in all cases: in vivo
[1] = tested on: trained panelists; test: Sensory evaluation of saltiness and KCl taste in 0.25% KCl base (trained panel, scale -5 to 5); conditions: 0.25% KCl base, 20 ppm
Text: (§1) A panel consisting of 25 trained panelists evaluated samples at 5, 10 or 20 ppm for taste properties (salt and/or umami, or KCl taste) on a scale of −5 to 5 (−5 denoted strong masking effect and 5 denoted strong enhancing effect, 0 being the intensity of a reference water solution containing 0.25% NaCl or 0.25% KCl or 0.05% MSG or 1.5% chicken broth base).

[2] = tested on: trained panelists; test: Sensory evaluation of umami in 0.05% MSG base (trained panel, scale -5 to 5)
Text: as §1, with “base). A panel consisted of 25 trained panelists evaluated samples at 5 ppm for taste properties (salt and/or umami) on a scale of −5 to 5 (−5 denoted strong masking effect and 5 denoted strong enhancing effect, 0 being the intensity of a reference water solution containing 0.25% NaCl or 0.05% MSG or 1.5% chicken broth base). • 1) Sensory Evaluation” for “base).”

[3] = tested on: trained panelists; test: Sensory evaluation of saltiness in 0.25% NaCl base (trained panel, scale -5 to 5)
Text: as §1, with “base). A panel consisted of 25 trained panelists evaluated samples at 5 ppm for taste properties (salt and/or umami) on a scale of −5 to 5 (−5 denoted strong masking effect and 5 denoted strong enhancing effect, 0 being the intensity of a reference water solution containing 0.25% NaCl or 0.05% MSG or 1.5% chicken broth base). • 1) Sensory Evaluation” for “base).”

How did the KCl taste masking ([1]; with nose-clip) turn out when O=C(/C=C/C=C/c1ccc2c(c1)OCO2)NCCO [Compound V] was run?
The KCl taste masking was “significantly masked KCl taste”.

What about the saltiness enhancement ([1]; with nose-clip) of the same compound?
Its saltiness enhancement is “enhanced saltiness”.

And the KCl taste masking ([1]; without nose-clip)?
Its KCl taste masking is “significantly masked KCl taste”.

What about the saltiness enhancement ([1]; without nose-clip) of the same compound?
Its saltiness enhancement is “enhanced saltiness”.

And the umami enhancement ([2]; 20 ppm, with nose-clip)?
Its umami enhancement is “enhanced umami”.

What about the umami enhancement ([2]; 20 ppm, without nose-clip) of the same compound?
Its umami enhancement is “enhanced umami”.

With O=C(/C=C/c1ccccc1)NCCO [Compound IV] as the compound, how does the saltiness enhancement ([3]; 10 ppm, with nose-clip) read?
The saltiness enhancement was “significantly enhanced saltiness”.

And the saltiness enhancement ([3]; 10 ppm, without nose-clip)?
The saltiness enhancement was “enhanced saltiness”.

What about the umami enhancement ([2]; 10 ppm, with nose-clip) of the same compound?
The umami enhancement was “enhanced umami”.

What about the umami enhancement ([2]; 10 ppm, without nose-clip) of the same compound?
Its umami enhancement is “enhanced umami”.

With N=C(N)NCCCC(NC(=O)/C=C/c1ccccc1)C(=O)O (stereo not drawn) [Compound VI] as the compound, how does the saltiness enhancement ([3]; 5 ppm, with nose-clip) read?
The saltiness enhancement was “significantly enhanced saltiness intensity”.

What about the saltiness enhancement ([3]; 10 ppm, with nose-clip) of the same compound?
Its saltiness enhancement is “enhanced saltiness”.

What about the saltiness enhancement ([3]; 10 ppm, without nose-clip) of the same compound?
Its saltiness enhancement is “enhanced saltiness”.

What about the umami enhancement ([2]; 5 ppm, without nose-clip) of the same compound?
The umami enhancement was “significantly enhanced umami intensity”.

And the umami enhancement ([2]; 10 ppm, with nose-clip)?
The umami enhancement was “enhanced”.

What about the umami enhancement ([2]; 10 ppm, without nose-clip) of the same compound?
Its umami enhancement is “enhanced”.

Which results are given for O=C(NCCO)c1ccc(O)cc1 [Compound III]?
saltiness enhancement ([3]; 5 ppm, with nose-clip): significantly enhanced saltiness; saltiness enhancement ([3]; 5 ppm, without nose-clip): significantly enhanced saltiness; umami enhancement ([2]; 5 ppm, with nose-clip): enhanced umami; umami enhancement ([2]; 5 ppm, without nose-clip): enhanced umami

Which results are given for O=C(NCCO)c1ccccc1 [Compound II]?
saltiness enhancement ([3]; 5 ppm, with nose-clip): significantly enhanced saltiness; saltiness enhancement ([3]; 5 ppm, without nose-clip): enhanced saltiness; umami enhancement ([2]; 5 ppm, with nose-clip): enhanced; umami enhancement ([2]; 5 ppm, without nose-clip): enhanced umami
